Experimental data from US20130310256A1, “HERBICIDAL COMPOSITIONS COMPRISING 4-AMINO-3-CHLORO-5-FLUORO-6-(4-CHLORO-2-FLUORO-3-METHOXYPHENYL) PYRIDINE-2-CARBOXYLIC ACID OR A DERIVATIVE THEREOF AND VLCFA AND LIPID SYNTHESIS INHIBITING HERBICIDES” (DOW AGROSCIENCES LLC, priority 2008, published 2013).

How the values were obtained:
[1] = tested on: CYPES; assay: Example I: postemergence foliar-applied weed control, greenhouse; type: in vivo, Cyperus esculentus L. (yellow nutsedge)
[2] = tested on: LEFCH; assay: as above; type: in vivo, Leptochloa chinensis (L.) Nees (Chinese sprangletop); conditions: foliar
Source text: (§1) Seeds or nutlets of the desired test plant species were planted in a soil matrix prepared by mixing a loam or sandy loam soil (e.g., 28.6 percent silt, 18.8 percent clay, and 52.6 percent sand, with a pH of about 5.8 and an organic matter content of about 1.8 percent) and calcareous grit in an 80 to 20 ratio. The soil matrix was contained in plastic pots with a volume of 1 quart and a surface area of 83.6 square centimeters (cm^2). When required to ensure good germination and healthy plants, a fungicide treatment and/or other chemical or physical treatment was applied. The plants were grown for 8-22 days in a greenhouse with an approximate 14 hr photoperiod which was maintained at about 29° C. during the day and 26° C. during the night. Nutrients (Peters Excel® 15-5-15 5-Ca 2-Mg and iron chelate) were applied in the irrigation solution as needed and water was added on a regular basis. Supplemental lighting was provided with overhead metal halide 1000-Watt lamps as necessary. The plants were employed for testing when they reached the first through fourth true leaf stage.
(§2) Treatments consisted of the acid or esters of 4-amino-3-chloro-5-fluoro-6-(4-chloro-2-fluoro-3-methoxy-phenyl)pyridine-2-carboxylic acid (Compound A), each formulated as an SC (suspension concentrate), and various herbicidal components alone and in combination. Forms of compound A were applied on an acid equivalent basis.
(§3) Other herbicidal components were applied on an active ingredient basis and included very long chain fatty acid (VLCFA) synthesis-inhibiting and fatty acid/lipid synthesis-inhibiting herbicides acetochlor (technical grade material), acetochlor+dichlormid formulated as Topnotch®, pretilachlor (technical grade material), butachlor formulated as Butachlor EC, fentrazamide formulated as Fentrazamide EC, thiobencarb formulated as Bolero® 8EC, cafenstrole formulated as Himeadow® WP or Lapost® Flowable, benfuresate formulated as Full Shot®, dimethenamid-P formulated as Outlook®, indanofan (technical grade material), flufenacet formulated as Define® DF, mefenacet (technical grade material), S-metolachlor formulated as Dual® II Magnum, pethoxamid formulated as Successor® 600, and pyroxasulfone (technical grade material).
(§4) Treatment requirements were calculated based upon the rates being tested, the concentration of active ingredient or acid equivalent in the formulation, and a 12 mL application volume at a rate of 187 L/ha.
(§5) For treatments comprised of formulated compounds, measured amounts of compounds were placed individually in 25 mL glass vials and diluted in a volume of 1.25% (v/v) Agri-Dex® crop oil concentrated to obtain 12× stock solutions. […] Application solutions were prepared by adding an appropriate amount of each stock solution (e.g., 1 mL) and diluted to the appropriate final concentrations with the addition of 10 mL of an aqueous mixture of 1.25% (v/v) crop oil concentrate so that the final spray solutions contained 1.25+/−0.05% (v/v) crop oil concentrate.
(§6) For treatments comprised of technical compounds, weighed amounts can be placed individually in 25 mL glass vials and dissolved in a volume of 97:3 v/v acetone/DMSO to obtain 12× stock solutions. […] Application solutions can be prepared by adding an appropriate amount of each stock solution (e.g., 1 mL) and diluted to the appropriate final concentrations with the addition of 10 mL of an aqueous mixture of 1.5% (v/v) crop oil concentrate so that the final spray solutions contain 1.25% (v/v) crop oil concentrate. When technical materials are used, the concentrated stock solutions can be added to the spray solutions so that the final acetone and DMSO concentrations of the application solutions are […], respectively. […]

[3] = tested on: CYPIR; assay: as above; type: in vivo, Cyperus iria L. (rice flatsedge); conditions: foliar
Source text: as §1, §2, §3, §4, §5, §6

[4] = tested on: IPOHE; assay: Example IV: pre-emergence soil-applied weed control, greenhouse; type: in vivo, Ipomoea hederacea Jacq. (ivyleaf morningglory); conditions: 28 DAA
Source text: Seeds or nutlets of the desired test plant species were planted in a soil matrix prepared by mixing a loam soil (32 percent silt, 23 percent clay, and 45 percent sand, with a pH of about 6.5 and an organic matter content of about 1.9 percent) and calcareous grit in an 80 to 20 ratio. The soil matrix was contained in plastic pots with a volume of 1 quart and a surface area of 83.6 square centimeters (cm^2).
as §2, with “benzyl ester” for “acid or esters”, “(compound A)” for “(Compound A), each”, “concentrate)” for “concentrate),”
Other herbicidal components were applied on an active ingredient basis and included very long chain fatty acid (VLCFA) synthesis-inhibiting and fatty acid/lipid synthesis-inhibiting herbicides alachlor (technical grade material), dimethenamid-P formulated as Outlook®, and S-metolachlor formulated as Dual® II Magnum.
as §4
as §5, with “oil concentrate (COC)” for “oil concentrated”, “(v/v) COC” for “(v/v) crop oil concentrate”, “contained 1.25%” for “contained 1.25+/−0.05%”, “(v/v) COC.” for “(v/v) crop oil concentrate.”
For treatments comprised of technical compounds, weighed amounts can be placed individually in 25 mL glass vials and dissolved in a volume of 97:3 (v/v) acetone/DMSO to obtain 12× stock solutions. […] Application solutions can be prepared by adding an appropriate amount of each stock solution (e.g., 1 mL) and diluted to the appropriate final concentrations with the addition of 10 mL of an aqueous mixture of 1.5% (v/v) COC so that the final spray solutions contain 1.25% (v/v) COC. When technical materials are used, the concentrated stock solutions can be added to the spray solutions so that the final acetone and DMSO concentrations of the application solutions are 16.2% and 0.5%, respectively.
For treatments comprised of formulated and technical compounds, weighed amounts of the technical materials were placed individually in 25 mL glass vials and dissolved in a volume of 97:3 (v/v) acetone/DMSO to obtain 12× stock solutions, and measured amounts of the formulated compounds were placed individually in 25 mL glass vials and diluted in a volume of 1.5% (v/v) COC or water to obtain 12× stock solutions. […] Application solutions were prepared by adding an appropriate amount of each stock solution (e.g., 1 mL) and diluted to the appropriate final concentrations with the addition of an appropriate amount of an aqueous mixture of 1.5% (v/v) COC so that the final spray solutions contained 1.25% (v/v) COC. As required, additional water and/or 97:3 (v/v) acetone/DMSO was added to individual application solutions so that the final acetone and DMSO concentrations of the application solutions being compared were 8.1% and 0.25%, respectively.
All stock solutions and applications solutions were visually inspected for compound compatibility prior to application. Spray solutions were applied to the soil with an overhead Mandel track sprayer equipped with a 8002E nozzles calibrated to deliver 187 L/ha over an application area of 0.503 m^2 at a spray height of 18 inches (46 cm) above average pot height. Control pots were sprayed in the same manner with the solvent blank.
The treated and control pots were placed in a greenhouse and top watered as needed. […]

[5] = tested on: ECHCG; assay: Example I: postemergence foliar-applied weed control, greenhouse; type: in vivo, Echinochloa crus-galli (L.) Beauv. (barnyardgrass); conditions: foliar
Source text: as §1, §2, §3, §4, §5, §6

| Structure (SMILES) | Visual Weed Control (%) - 21 DAA CYPES Obs ([1]; 305 gai/ha) | Visual Weed Control (%) - 21 DAA CYPES Obs ([1]; 610 gai/ha) | Visual Weed Control (%) - 21 DAA CYPES Obs ([1]; 1220 gai/ha) | Visual Weed Control (%) - 21 DAA LEFCH Obs ([2]; 305 gai/ha) | Visual Weed Control (%) - 21 DAA LEFCH Obs ([2]; 610 gai/ha) | Visual Weed Control (%) - 21 DAA CYPIR Obs ([3]; 305 gai/ha) | Visual Weed Control (%) - 21 DAA CYPIR Obs ([3]; 610 gai/ha) | Visual Weed Control (%) - 21 DAA CYPIR Obs ([3]; 1220 gai/ha) | Visual Weed Control IPOHE Obs ([4]; 387.5 gai/ha) | Visual Weed Control IPOHE Obs ([4]; 775 gai/ha) | Visual Weed Control IPOHE Obs ([4]; 1550 gai/ha) | Visual Weed Control (%) - 20 DAA ECHCG Obs ([5]; 387.5 gai/ha) | Visual Weed Control (%) - 20 DAA ECHCG Obs ([5]; 775 gai/ha) |
| --- | --- | --- | --- | --- | --- | --- | --- | --- | --- | --- | --- | --- | --- |
| CCOCCN(C(=O)CCl)C(=C(C)C)c1ccccc1 [Pethoxamid, 2-Chloro-N-(2-ethoxyethyl)-N-(2-methyl-1-phenyl-1-propen-1-yl)acetamide] | 0% | 25% | 65% | 10% | 10% | 40% | 80% | 85% | – | – | – | – | – |
| CCc1cccc(C)c1N(C(=O)CCl)C(C)COC (stereo not shown) [S-Metolachlor] | – | – | – | – | – | – | – | – | 25% | 0% | 33% | 20% | 55% |
